System: aerobic heterotrophs
Experiment: Bacteria Resistance Testing: acids added to infected electrodeposition permeate, spread plate count on R2A agar
Format: cell-based
Details: reactors rolled at 32° C.; for Bacteria Count 3 day: plated at 3 days; for Bacteria Count 7 day: plated at 7 days; for Bacteria Count 10 day: plated at 10 days
Method: Infected rinsewater from an online electrodeposition bath tank (containing E6100, commercially available from PPG Industries, Inc.) having a bacterial count of 1.5×10^6 cfu/mL was used to inoculate filter-sterilized ultrafiltrate (“permeate”) collected from the same line. The infected rinsewater was diluted by a factor of 10^3 into the sterile permeate. The infected permeate was added to reactors. The various acids listed below in the following Table 2 were prepared as 1% solutions in water and tested at 1000, 500, and 200 ppm of active material. Reactors were rolled for 10 days at 32° C. and were plated for bacteria counts at 3, 7, and 10 days.
The enumeration of aerobic heterotrophs in the reactors utilized the standard spread plate method as described in Standard Methods for the Examination of Water and Wastewater, 1992, section 9215C. Bacterial counts were examined using R2A agar plates. 100 μL of a suitable dilution of sample was pipetted onto the surface of the media and spread with an alcohol and flame sterilized glass rod. The plates were inverted and incubated for 3 days at 32° C. with periodic examination. Colony forming units were counted on a New Brunswick Bactronic Colony Counter. A target of 30 to 300 cfu per plate was considered a valid count.

[1] = acid at 200 ppm of active material
[2] = acid at 500 ppm of active material
[3] = acid at 1000 ppm of active material

| SMILES | Bacteria Count 3 day [1] | Bacteria Count 7 day [1] | Bacteria Count 10 day [1] | Bacteria Count 3 day [2] | Bacteria Count 7 day [2] | Bacteria Count 10 day [2] | Bacteria Count 3 day [3] | Bacteria Count 7 day [3] | Bacteria Count 10 day [3] |
| --- | --- | --- | --- | --- | --- | --- | --- | --- | --- |
| COCCOCC(=O)O [2-(2-methoxyethoxy)acetic, 2-(2-methoxyethoxy)acetic acid] | 8.0 × 10^6 | 2.8 × 10^7 | 2.3 × 10^7 | <4.0 × 10^1 | >1.2 × 10^4 | 4.0 × 10^6 | <4.0 × 10^1 | <4.0 × 10^1 | <4.0 × 10^1 |
| COCCOCCOCC(=O)O [2-[2-(2-methoxyethoxy)-ethox]acetic, 2-[2-(methoxyethoxy)ethoxy]acetic acid] | 3.2 × 10^6 | 4.0 × 10^7 | 5.2 × 10^7 | <4.0 × 10^1 | >1.2 × 10^4 | 6.4 × 10^6 | <4.0 × 10^1 | <4.0 × 10^1 | <4.0 × 10^1 |
| CCCCOCC(=O)O [Butoxyacetic, butoxyacetic acid] | 3.0 × 10^6 | 1.2 × 10^7 | 5.6 × 10^7 | <4.0 × 10^1 | <4.0 × 10^1 | <4.0 × 10^1 | <4.0 × 10^1 | <4.0 × 10^1 | <4.0 × 10^1 |
| CCOCC(=O)O [Ethoxyacetic, ethoxyacetic acid] | 1.3 × 10^6 | 3.2 × 10^7 | 4.8 × 10^7 | <4.0 × 10^1 | <4.0 × 10^1 | <4.0 × 10^1 | <4.0 × 10^1 | <4.0 × 10^1 | <4.0 × 10^1 |
| CC(O)C(=O)O (stereo not drawn) [Lactic, lactic acid, reference compound] | – | – | – | 7.2 × 10^7 | 7.8 × 10^7 | 2.4 × 10^7 | 2.4 × 10^7 | 5.0 × 10^7 | 2.3 × 10^7 |
| COCC(=O)O [Methoxyacetic, methoxyacetic acid] | <4.0 × 10^1 | <4.0 × 10^2 | <4.0 × 10^1 | <4.0 × 10^1 | <4.0 × 10^1 | <4.0 × 10^1 | <4.0 × 10^1 | <4.0 × 10^1 | <4.0 × 10^1 |
| O=C(O)COc1ccccc1 [Phenoxyacetic, phenoxyacetic acid] | 4.0 × 10^6 | 8.0 × 10^6 | 3.2 × 10^7 | <4.0 × 10^1 | <4.0 × 10^1 | <4.0 × 10^1 | <4.0 × 10^1 | <4.0 × 10^1 | <4.0 × 10^1 |

— US6641707B2, “Biodegradation-resistant electrodepositable coating compositions and methods related thereto” (PPG Industries Ohio, Inc., priority 2001, dated 2003)
